Reference: patent US20110224210A1, “NOVEL BIS-AMIDES AS ANTI-MALARIAL AGENTS” (priority 2008, published 2011)

Test system: P. falciparum K1 (strain resistant to chloroquine and pyrimethamine), erythrocytic stages
Assay: Plasmodium falciparum in vitro assay, [3H] hypoxanthine incorporation
Assay type: cell-based
Conditions: Plasmodium falciparum, K1, P. falciparum strain K1; [3H] hypoxanthine incorporation; read-out: IC50 (nM) on K1
How it was run: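 K1 strain parasites grown in human red cells, 2.5% haematocrit, 0.3% parasitaemia, 37 °C, 4% CO2/3% O2; compounds in seven serial doubling dilutions.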

SMILES | IC50
COc1cc(CN(C)CCN(C)C(=O)[C@H](Cc2ccccc2)N(Cc2ccc(N3CCOCC3)cc2)C(=O)C=Cc2ccc(C(F)(F)F)cc2)cc(OC)c1 [Example 235, (S)-N-[1-({2-[(3,5-Dimethoxy-benzyl)-methyl-amino]-ethyl}-methyl-carbamoyl)-2-phenyl-ethyl]-N-(4-morpholin-4-yl-benzyl)-3-(4-trifluoromethyl-phenyl)-acrylamide] | 58 nM
COc1cc(CN(C)CCN(C)C(=O)[C@H](Cc2ccccc2)N(Cc2ccc(N3CCN(C(C)=O)CC3)cc2)C(=O)C=Cc2ccc(C(F)(F)F)cc2)cc(OC)c1 [Example 236, (S)-N-[4-(4-Acetyl-piperazin-1-yl)-benzyl]-N-[1-({2-[(3,5-dimethoxy-benzyl)-methyl-amino]-ethyl}-methyl-carbamoyl)-2-phenyl-ethyl]-3-(4-trifluoromethyl-phenyl)-acrylamide] | 68 nM
CC(=O)N1CCN(c2ccc(CN(C(=O)C=Cc3ccc(C(F)(F)F)cc3)[C@@H](Cc3ccccc3)C(=O)N(C)CCN(C)Cc3ccc(N(C)CCO)cc3)cc2)CC1 [Example 237, (S)-N-[4-(4-Acetyl-piperazin-1-yl)-benzyl]-N-(1-{[2-({4-[(2-hydroxy-ethyl)-methyl-amino]-benzyl}-methyl-amino)-ethyl]-methyl-carbamoyl}-2-phenyl-ethyl)-3-(4-trifluoromethyl-phenyl)-acrylamide] | 55 nM
CC(=O)N1CCN(c2ccc(CN(C(=O)C=Cc3ccc(C(F)(F)F)cc3)[C@@H](Cc3ccccc3)C(=O)N(C)CCN(C)Cc3ccc(O)cc3)cc2)CC1 [Example 238, (S)-N-[4-(4-Acetyl-piperazin-1-yl)-benzyl]-N-[1-({2-[(4-hydroxy-benzyl)-methyl-amino]-ethyl}-methyl-carbamoyl)-2-phenyl-ethyl]-3-(4-trifluoromethyl-phenyl)-acrylamide] | 27 nM
CCN(CC)c1ccc(CN(C)CCN(C)C(=O)[C@H](Cc2ccccc2)N(Cc2ccc(N3CCN(C(C)=O)CC3)cc2)C(=O)C=Cc2ccc(C(F)(F)F)cc2)cc1 [Example 239, (S)-N-[4-(4-Acetyl-piperazin-1-yl)-benzyl]-N-[1-({2-[(4-diethylamino-benzyl)-methyl-amino]-ethyl}-methyl-carbamoyl)-2-phenyl-ethyl]-3-(4-trifluoromethyl-phenyl)-acrylamide] | 61 nM
CC(=O)N1CCN(c2ccc(CN(C(=O)C=Cc3ccc(C(F)(F)F)cc3)[C@@H](Cc3ccccc3)C(=O)N(C)CCN(C)Cc3cccc(O)c3)cc2)CC1 [Example 240, (S)-N-[4-(4-Acetyl-piperazin-1-yl)-benzyl]-N-[1-({2-[(3-hydroxy-benzyl)-methyl-amino]-ethyl}-methyl-carbamoyl)-2-phenyl-ethyl]-3-(4-trifluoromethyl-phenyl)-acrylamide] | 28 nM
CC(=O)N1CCN(c2ccc(CN(C(=O)C=Cc3ccc(C(F)(F)F)cc3)[C@@H](Cc3ccccc3)C(=O)N(C)CCN(C)Cc3cccnc3)cc2)CC1 [Example 241, (S)-N-[4-(4-Acetyl-piperazin-1-yl)-benzyl]-N-(1-{methyl-[2-(methyl-pyridin-3-ylmethyl-amino)-ethyl]-carbamoyl}-2-phenyl-ethyl)-3-(4-trifluoromethyl-phenyl)-acrylamide] | 27 nM
CC(=O)N1CCN(c2ccc(CN(C(=O)C=Cc3ccc(C(F)(F)F)cc3)[C@@H](Cc3ccccc3)C(=O)N(C)CCN(C)Cc3cccc(OCCO)c3)cc2)CC1 [Example 242, (S)-N-[4-(4-Acetyl-piperazin-1-yl)-benzyl]-N-{1-[(2-{[3-(2-hydroxy-ethoxy)-benzyl]-methyl-amino}-ethyl)-methyl-carbamoyl]-2-phenyl-ethyl}-3-(4-trifluoromethyl-phenyl)-acrylamide] | 14 nM
CC(=O)N1CCN(c2ccc(CN(C(=O)C=Cc3ccc(C(F)(F)F)cc3)[C@@H](Cc3ccccc3)C(=O)N(C)CCN(C)Cc3cccc(C#N)c3)cc2)CC1 [Example 243, (S)-N-[4-(4-Acetyl-piperazin-1-yl)-benzyl]-N-[1-({2-[(3-cyano-benzyl)-methyl-amino]-ethyl}-methyl-carbamoyl)-2-phenyl-ethyl]-3-(4-trifluoromethyl-phenyl)-acrylamide] | 52 nM
CC(=O)N1CCN(c2ccc(CN(C(=O)C=Cc3ccc(C(F)(F)F)cc3)[C@@H](Cc3ccccc3)C(=O)N(C)CCN(C)Cc3ccc(OC(C)C)cc3)cc2)CC1 [Example 244, (S)-N-[4-(4-Acetyl-piperazin-1-yl)-benzyl]-N-[1-({2-[(4-isopropoxy-benzyl)-methyl-amino]-ethyl}-methyl-carbamoyl)-2-phenyl-ethyl]-3-(4-trifluoromethyl-phenyl)-acrylamide] | 19 nM
CC(=O)N1CCN(c2ccc(CN(C(=O)C=Cc3ccc(C(F)(F)F)cc3)[C@@H](Cc3ccccc3)C(=O)N(C)CCN(C)Cc3ccc4c(c3)OCCN4C)cc2)CC1 [Example 245, (S)-N-[4-(4-Acetyl-piperazin-1-yl)-benzyl]-N-[1-(methyl-{2-[methyl-(4-methyl-3,4-dihydro-2H-benzo[1,4]oxazin-7-ylmethyl)-amino]-ethyl}-carbamoyl)-2-phenyl-ethyl]-3-(4-trifluoromethyl-phenyl)-acrylamide] | 87 nM
CC(=O)N1CCN(c2ccc(CN(C(=O)C=Cc3ccc(C(F)(F)F)cc3)[C@@H](Cc3ccccc3)C(=O)N(C)CCN(C)Cc3ccc(OCCCN(C)C)cc3)cc2)CC1 [Example 246, (S)-N-[4-(4-Acetyl-piperazin-1-yl)-benzyl]-N-{1-[(2-{[4-(3-dimethylamino-propoxy)-benzyl]-methyl-amino}-ethyl)-methyl-carbamoyl]-2-phenyl-ethyl}-3-(4-trifluoromethyl-phenyl)-acrylamide] | 64 nM
COc1ccc(CN(C)CCN(C)C(=O)[C@H](Cc2ccccc2)N(Cc2ccc(N3CCN(C(C)=O)CC3)cc2)C(=O)C=Cc2ccc(C(F)(F)F)cc2)cn1 [Example 247, (S)-N-[4-(4-Acetyl-piperazin-1-yl)-benzyl]-N-[1-({2-[(6-methoxy-pyridin-3-ylmethyl)-methyl-amino]-ethyl}-methyl-carbamoyl)-2-phenyl-ethyl]-3-(4-trifluoromethyl-phenyl)-acrylamide] | 26 nM
CC(=O)N1CCN(c2ccc(CN(C(=O)C=Cc3ccc(C(F)(F)F)cc3)[C@@H](Cc3ccccc3)C(=O)N(C)CCN(C)Cc3nccs3)cc2)CC1 [Example 248, (S)-N-[4-(4-Acetyl-piperazin-1-yl)-benzyl]-N-(1-{methyl-[2-(methyl-thiazol-2-ylmethyl-amino)-ethyl]-carbamoyl}-2-phenyl-ethyl)-3-(4-trifluoromethyl-phenyl)-acrylamide] | 21 nM
CC(=O)N1CCN(c2ccc(CN(C(=O)C=Cc3ccc(C(F)(F)F)cc3)[C@@H](Cc3ccccc3)C(=O)N(C)CCN(C)Cc3ccc4c(c3)OCO4)cc2)CC1 [Example 249, (S)-N-[4-(4-Acetyl-piperazin-1-yl)-benzyl]-N-(1-{[2-(benzo[1,3]dioxol-5-ylmethyl-methyl-amino)-ethyl]-methyl-carbamoyl}-2-phenyl-ethyl)-3-(4-trifluoromethyl-phenyl)-acrylamide] | 39 nM
CC(=O)N1CCN(c2ccc(CN(C(=O)C=Cc3ccc(C(F)(F)F)cc3)[C@@H](Cc3ccccc3)C(=O)N(C)CCN(C)Cc3cncnc3)cc2)CC1 [Example 250, (S)-N-[4-(4-Acetyl-piperazin-1-yl)-benzyl]-N-(1-{methyl-[2-(methyl-pyrimidin-5-ylmethyl-amino)-ethyl]-carbamoyl}-2-phenyl-ethyl)-3-(4-trifluoromethyl-phenyl)-acrylamide] | 27 nM
CC(=O)N1CCN(c2ccc(CN(C(=O)C=Cc3ccc(C(F)(F)F)cc3)[C@@H](Cc3ccccc3)C(=O)N(C)CCN(C)Cc3ccc(C)c(F)c3F)cc2)CC1 [Example 251, (S)-N-[4-(4-Acetyl-piperazin-1-yl)-benzyl]-N-[1-({2-[(2,3-difluoro-4-methyl-benzyl)-methyl-amino]-ethyl}-methyl-carbamoyl)-2-phenyl-ethyl]-3-(4-trifluoromethyl-phenyl)-acrylamide] | 53 nM
CC(=O)N1CCN(c2ccc(CN(C(=O)C=Cc3ccc(C(F)(F)F)cc3)[C@@H](Cc3ccccc3)C(=O)N(C)CCN(C)Cc3cnc[nH]3)cc2)CC1 [Example 252, (S)-N-[4-(4-Acetyl-piperazin-1-yl)-benzyl]-N-[1-({2-[(3H-imidazol-4-ylmethyl)-methyl-amino]-ethyl}-methyl-carbamoyl)-2-phenyl-ethyl]-3-(4-trifluoromethyl-phenyl)-acrylamide] | 80 nM
CC(=O)N1CCN(c2ccc(CN(C(=O)C=Cc3ccc(C(F)(F)F)cc3)[C@@H](Cc3ccccc3)C(=O)N(C)CCN(C)Cc3ccncc3)cc2)CC1 [Example 253, (S)-N-[4-(4-Acetyl-piperazin-1-yl)-benzyl]-N-(1-{methyl-[2-(methyl-pyridin-4-ylmethyl-amino)-ethyl]-carbamoyl}-2-phenyl-ethyl)-3-(4-trifluoromethyl-phenyl)-acrylamide] | 19 nM
CC(=O)N1CCN(c2ccc(CN(C(=O)C=Cc3ccc(C(F)(F)F)cc3)[C@@H](Cc3ccccc3)C(=O)N(C)CCN(C)Cc3ccccc3)cc2)CC1 [Example 254, (S)-N-[4-(4-Acetyl-piperazin-1-yl)-benzyl]-N-(1-{[2-(benzyl-methyl-amino)-ethyl]-methyl-carbamoyl}-2-phenyl-ethyl)-3-(4-trifluoromethyl-phenyl)-acrylamide] | 76 nM
CN(CCN(C)C(=O)[C@H](Cc1ccccc1)N(Cc1ccc(N2CCOCC2)cc1)C(=O)C=Cc1ccc(C(F)(F)F)cc1)Cc1ccc(N(C)CCO)cc1 [Example 255, (S)-N-(1-{[2-({4-[(2-Hydroxy-ethyl)-methyl-amino]-benzyl}-methyl-amino)-ethyl]-methyl-carbamoyl}-2-phenyl-ethyl)-N-(4-morpholin-4-yl-benzyl)-3-(4-trifluoromethyl-phenyl)-acrylamide] | 59 nM
CN(CCN(C)C(=O)[C@H](Cc1ccccc1)N(Cc1ccc(N2CCOCC2)cc1)C(=O)C=Cc1ccc(C(F)(F)F)cc1)Cc1ccc(O)cc1 [Example 256, (S)-N-[1-({2-[(4-Hydroxy-benzyl)-methyl-amino]-ethyl}-methyl-carbamoyl)-2-phenyl-ethyl]-N-(4-morpholin-4-yl-benzyl)-3-(4-trifluoromethyl-phenyl)-acrylamide] | 39 nM
